Like-named read-outs stand apart in the source and are kept apart here.

The subject of the experiment is Wnt signaling. The experiment in a line: TopFlash reporter gene bioassay in SW480 cells. The note with it: Homo sapiens. It counts as cell-based. On the technique in general: A reporter such as luciferase makes a cellular process visible.
[1] abbreviates: SW480, TopFlash reporter gene assay, inhibition of Wnt signaling, read-out: RGA, IC50 (μM) TopF.
[2] abbreviates: SW480, read-out: RGA, IC50 (μM) TopF.

For the compound `C=CCN1CC(=O)N2[C@@H](Cc3ccc4[nH]ncc4c3)C(=O)N(Cc3cccc4scnc34)C[C@@H]2N1C(=O)NCc1ccccc1` (racemic) [compound 237], under setting [1], the IC50 is 46.7 ± 6.13 µM.
`C=CCN1CC(=O)N2[C@@H](Cc3ccc(O)cc3)C(=O)N(Cc3cccc(Br)c3)C[C@@H]2N1C(=O)NCc1ccccc1` [Compound F]: the IC50 (SW480, 24 h, SW480 cells, 24 hours treatment, luciferase assay, read-out: IC50 for SW480 cells, TopFlash reporter gene bioassay) amounted to 0.73 ± 0.08 µM.
For the compound `C=CCN1CC(=O)N2[C@@H](Cc3ccc(O)cc3)C(=O)N(Cc3cccc4c(C(=O)C5CC5)cn(S(=O)(=O)c5ccc(C)cc5)c34)C[C@@H]2N1C(=O)NCc1ccccc1` [compound 1], under setting [1], the half-maximal inhibitory concentration (IC50) is 0.081 ± 0.0086 µM.
On to `C=CCN1CC(=O)N2[C@@H](Cc3ccc(O)cc3)C(=O)N(Cc3cccc4c(C(C)=O)cn(S(=O)(=O)c5ccc(C)cc5)c34)C[C@@H]2N1C(=O)NCc1ccccc1` [compound 2], for which, under setting [1], the IC50 was 0.084 ± 0.016 µM.
The same measure, in the same setting: then `C=CCN1CC(=O)N2[C@@H](Cc3ccc(O)cc3)C(=O)N(Cc3cccc4c(C(C)=O)c[nH]c34)C[C@@H]2N1C(=O)NCc1ccccc1` [compound 3], with 0.098 ± 0.014 µM; and `C=CCN1CC(=O)N2[C@@H](Cc3ccc(O)cc3)C(=O)N(Cc3cccc4c(C(=O)C5CC5)c[nH]c34)C[C@@H]2N1C(=O)NCc1ccccc1` [compound 4], with 0.14 ± 0.025 µM.
Still for that read-out and setting: the value for `C=CCN1CC(=O)N2[C@@H](Cc3ccc(O)cc3)C(=O)N(Cc3cccc4c(C(C)=O)cn(S(=O)(=O)c5ccc(Cl)cc5)c34)C[C@@H]2N1C(=O)NCc1ccccc1` [compound 6] was 0.18 ± 0.076 µM; that for `C=CCN1CC(=O)N2[C@@H](Cc3ccc(O)cc3)C(=O)N(Cc3cccc(-c4cccnc4F)c3)C[C@@H]2N1C(=O)NCc1ccccc1` [compound 7] was 0.26 ± 0.08 µM.
In the case of `C=CCN1CC(=O)N2[C@@H](Cc3ccc(O)cc3)C(=O)N(Cc3cccc(C(=O)NCCC)c3)C[C@@H]2N1C(=O)NCc1ccccc1` [compound 9], the IC50 under setting [2] was 0.3 ± 0.02 µM.
For `C=CCN1CC(=O)N2[C@@H](Cc3ccc(O)cc3)C(=O)N(Cc3cccc4c(-c5ccccc5)c[nH]c34)C[C@@H]2N1C(=O)NCc1ccccc1` [compound 10], the half-inhibitory concentration (IC50) under setting [1] amounted to 0.3 ± 0.06 µM.
The same measure, in the same setting: the value for `C=CCN1CC(=O)N2[C@@H](Cc3ccc(O)cc3)C(=O)N(Cc3cccc4c(C#N)cn(S(=O)(=O)c5ccccc5)c34)C[C@@H]2N1C(=O)NCc1ccccc1` [compound 11] was 0.31 ± 0.09 µM.
Still for that read-out and setting: then `C=CCN1CC(=O)N2[C@@H](Cc3ccc(O)cc3)C(=O)N(Cc3cccc(-c4cccnc4)c3)C[C@@H]2N1C(=O)NCc1ccccc1` [compound 12], with 0.34 ± 0.12 µM.
Consider `C=CCN1CC(=O)N2[C@@H](Cc3ccc(OP(=O)(O)O)cc3)C(=O)N(Cc3cccc4c3oc3ccccc34)C[C@@H]2N1C(=O)NCc1ccccc1` [compound 13], for which the half-inhibitory concentration (IC50) under setting [2] is 0.36 ± 0.13 µM.
Regarding `C=CCN1CC(=O)N2C(Cc3ccc(OP(=O)(O)O)cc3)C(=O)N(Cc3cccc4sc(N)nc34)C[C@@H]2N1C(=O)NCc1ccccc1` (some centres unmarked) [compound 14], under setting [2], the half-maximal inhibitory concentration (IC50) worked out at 0.37 ± 0.07 µM.
As for `C=CCN1CC(=O)N2[C@@H](Cc3ccc(O)cc3)C(=O)N(Cc3ccc(F)c(Br)c3)C[C@@H]2N1C(=O)NCc1ccccc1` [compound 16], the half-maximal inhibitory concentration (IC50) under setting [1] is 0.39 ± 0.05 µM.
Same read-out and setting: then `C=CCN1CC(=O)N2[C@@H](Cc3ccc(O)cc3)C(=O)N(Cc3ccccc3SC)C[C@@H]2N1C(=O)NCc1ccccc1` [compound 17], with 0.42 ± 0.04 µM; and `C=CCN1CC(=O)N2[C@@H](Cc3ccc(O)cc3)C(=O)N(Cc3cccc(-c4cccc(NC(C)=O)c4)c3)C[C@@H]2N1C(=O)NCc1ccccc1` [compound 18], with 0.42 ± 0.12 µM.
Consider `C=CCN1CC(=O)N2[C@@H](Cc3ccc(O)cc3)C(=O)N(Cc3cccc4c(Cl)c[nH]c34)C[C@@H]2N1C(=O)NCc1ccccc1` [compound 19], for which, under setting [1], the half-maximal inhibitory concentration (IC50) came to 0.43 ± 0.08 µM.
The same measure, in the same setting: then `C=CCN1CC(=O)N2[C@@H](Cc3ccc(O)cc3)C(=O)N(Cc3cccc4ccn(S(=O)(=O)c5ccc(Cl)cc5)c34)C[C@@H]2N1C(=O)NCc1ccccc1` [compound 20], with 0.43 ± 0.1 µM.
For the compound `C=CCN1CC(=O)N2[C@@H](Cc3ccc(O)cc3)C(=O)N(Cc3csc4ccc(F)cc34)C[C@@H]2N1C(=O)NCc1ccccc1` [compound 21], under setting [1], the 50% inhibitory concentration (IC50) stood at 0.45 ± 0.05 µM.

The IC50 is the midpoint of a concentration-inhibition curve.

The values above are taken from US8080657B2, “Compounds of reverse turn mimetics and the use thereof” (Choongwae Pharma Corporation, priority 2008, dated 2011).
